# Reference: patent US20260285875A1, “INHIBITORS OF PARG” (858 Therapeutics, Inc., priority 2023, published 2026)
# Target: T1, cellular PARG (Homo sapiens, UniProt Q86W56)
# T1 construct: endogenous in cells; host or cells: HeLa
# Experiment: Nuclear PAR accumulation assay (immunofluorescence high-content imaging, MMS-treated HeLa cells)
# Assay type: cell-based
# Conditions: 1 hour compound then MMS 50 μg/mL for an additional hour
# How it was run: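 HeLa cells pretreated with compound for 1 h at 37° C, then given 50 μg/mL MMS for another hour. After methanol fixation, PAR was immunostained with DAPI nuclear counterstain; per-nucleus intensity and percent PAR-positive cells were imaged at 20× (≥1,000 cells/well). IC50 from four-parameter logistic fit.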
# T1 sequence (Q86W56 whole entry): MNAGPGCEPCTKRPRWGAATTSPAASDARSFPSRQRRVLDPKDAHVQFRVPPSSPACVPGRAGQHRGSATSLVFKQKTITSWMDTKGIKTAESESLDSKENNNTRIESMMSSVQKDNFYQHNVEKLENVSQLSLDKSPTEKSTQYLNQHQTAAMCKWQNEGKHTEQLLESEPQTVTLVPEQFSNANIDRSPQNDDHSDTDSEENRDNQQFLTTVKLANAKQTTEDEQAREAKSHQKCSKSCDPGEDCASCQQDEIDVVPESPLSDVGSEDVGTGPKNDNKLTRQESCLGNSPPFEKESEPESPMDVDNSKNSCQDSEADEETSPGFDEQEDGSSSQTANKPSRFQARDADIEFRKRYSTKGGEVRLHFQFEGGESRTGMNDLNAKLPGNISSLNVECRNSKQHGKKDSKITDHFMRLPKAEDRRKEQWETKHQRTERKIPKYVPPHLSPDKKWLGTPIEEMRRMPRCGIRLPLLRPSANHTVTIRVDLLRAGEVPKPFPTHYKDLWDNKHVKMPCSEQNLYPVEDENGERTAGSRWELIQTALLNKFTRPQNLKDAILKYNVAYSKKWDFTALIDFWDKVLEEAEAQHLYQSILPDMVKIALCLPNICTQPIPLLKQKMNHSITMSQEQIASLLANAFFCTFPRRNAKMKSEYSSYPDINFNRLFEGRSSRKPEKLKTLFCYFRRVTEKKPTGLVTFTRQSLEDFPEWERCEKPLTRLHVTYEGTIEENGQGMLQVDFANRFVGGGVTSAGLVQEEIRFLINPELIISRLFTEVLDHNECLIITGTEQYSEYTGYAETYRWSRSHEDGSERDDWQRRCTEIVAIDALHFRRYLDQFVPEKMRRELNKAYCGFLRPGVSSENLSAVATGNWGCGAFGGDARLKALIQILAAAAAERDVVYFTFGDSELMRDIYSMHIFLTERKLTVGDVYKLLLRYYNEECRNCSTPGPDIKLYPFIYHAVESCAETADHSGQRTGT
row,SMILES,IC50
1,"C[C@@H]1CN=C2N(C)C(=O)c3cc(S(=O)(=O)NC4(C)CC4)cc(N4CCC5(CC4)COC5)c3N21 [Example 123, (R)-1,4-dimethyl-N-(1-methylcyclopropyl)-5-oxo-9-(2-oxa-7-azaspiro[3.5]nonan-7-yl)-1,2,4,5-tetrahydroimidazo[1,2-a]quinazoline-7-sulfonamide]",< 100 nM
2,"Cn1cc(CN2C(=O)c3cc(S(=O)(=O)NC4(C)CC4)ccc3N3C2=NC[C@H]3C#CC2(N)CC2)cn1 [Example 124, (R)-1-((1-aminocyclopropyl)ethynyl)-4-((1-methyl-1H-pyrazol-4-yl)methyl)-N-(1-methylcyclopropyl)-5-oxo-1,2,4,5-tetrahydroimidazo[1,2-a]quinazoline-7-sulfonamide]",< 100 nM
3,"COC1(C(=O)N2CCN(c3cc(S(=O)(=O)NC4(C)CC4)cc4c3N3C(=NC[C@H]3C)N(C)C4=O)CC2)CC1 [Example 125, (R)-9-(4-(1-methoxycyclopropane-1-carbonyl)piperazin-1-yl)-1,4-dimethyl-N-(1-methylcyclopropyl)-5-oxo-1,2,4,5-tetrahydroimidazo[1,2-a]quinazoline-7-sulfonamide]",< 100 nM
4,"C[C@@H]1CN(c2cc(S(=O)(=O)NC3(C)CC3)cc3c2N2C(=NC[C@H]2C)N(C)C3=O)C[C@@H](C)O1 [Example 126, (R)-9-((2R,6R)-2,6-dimethylmorpholino)-1,4-dimethyl-N-(1-methylcyclopropyl)-5-oxo-1,2,4,5-tetrahydroimidazo[1,2-a]quinazoline-7-sulfonamide]",100 to 1000 nM
5,"CNC1(C#C[C@@H]2CN=C3N(Cc4cnn(C)c4)C(=O)c4cc(S(=O)(=O)NC5(C)CC5)ccc4N32)CC1 [Example 127, (R)-4-((1-methyl-1H-pyrazol-4-yl)methyl)-1-((1-(methylamino)cyclopropyl)ethynyl)-N-(1-methylcyclopropyl)-5-oxo-1,2,4,5-tetrahydroimidazo[1,2-a]quinazoline-7-sulfonamide]",< 100 nM
6,"Cn1cc(CN2C(=O)c3cc(S(=O)(=O)NC4(C)CC4)ccc3N3C2=NC[C@H]3CCC#N)cn1 [Example 128, (R)-1-(2-cyanoethyl)-4-((1-methyl-1H-pyrazol-4-yl)methyl)-N-(1-methylcyclopropyl)-5-oxo-1,2,4,5-tetrahydroimidazo[1,2-a]quinazoline-7-sulfonamide]",100 to 1000 nM
7,"CN1C(=O)c2cc(S(=O)(=O)NC3(C)CC3)ccc2N2C1=NC[C@H]2C#CC1(N(C)C)CC1 [Example 129, (R)-1-((1-(dimethylamino)cyclopropyl)ethynyl)-4-methyl-N-(1-methylcyclopropyl)-5-oxo-1,2,4,5-tetrahydroimidazo[1,2-a]quinazoline-7-sulfonamide]",< 100 nM
8,"CN1C(=O)c2cc(S(=O)(=O)NC3(C)CC3)ccc2N2C1=NC[C@H]2C#Cc1cnn(C)c1 [Example 130, (R)-4-methyl-1-((1-methyl-1H-pyrazol-4-yl)ethynyl)-N-(1-methylcyclopropyl)-5-oxo-1,2,4,5-tetrahydroimidazo[1,2-a]quinazoline-7-sulfonamide]",< 100 nM
9,"[2H]C([2H])(c1cnn(C)c1)N1C(=O)c2cc(S(=O)(=O)NC3(C)CC3)ccc2N2C1=NCC2CNc1ccccn1 (centres unmarked) [Example 131, 4-((1-methyl-1H-pyrazol-4-yl)methyl-d2)-N-(1-methylcyclopropyl)-5-oxo-1-((pyridin-2-ylamino)methyl)-1,2,4,5-tetrahydroimidazo[1,2-a]quinazoline-7-sulfonamide]",1000 to 10000 nM
10,"Cn1cc(CN2C(=O)c3cc(S(=O)(=O)NC4(C)CC4)ccc3N3C2=NCC3C#Cc2ccncn2)cn1 (centres unmarked) [Example 132, 4-((1-methyl-1H-pyrazol-4-yl)methyl)-N-(1-methylcyclopropyl)-5-oxo-1-(pyrimidin-4-ylethynyl)-1,2,4,5-tetrahydroimidazo[1,2-a]quinazoline-7-sulfonamide]",100 to 1000 nM
11,"CN1C(=O)c2cc(S(=O)(=O)NC3(C)CC3)ccc2N2C1=NCC2C#Cc1ccc2cnn(C)c2c1 (centres unmarked) [Example 133, 4-methyl-1-((1-methyl-1H-indazol-6-yl)ethynyl)-N-(1-methylcyclopropyl)-5-oxo-1,2,4,5-tetrahydroimidazo[1,2-a]quinazoline-7-sulfonamide]",< 100 nM
12,"CN1C(=O)c2cc(S(=O)(=O)NC3(C)CC3)ccc2N2C1=NCC2C#Cc1cncc(C#N)c1 (centres unmarked) [Example 134, 1-((5-cyanopyridin-3-yl)ethynyl)-4-methyl-N-(1-methylcyclopropyl)-5-oxo-1,2,4,5-tetrahydroimidazo[1,2-a]quinazoline-7-sulfonamide]",< 100 nM
13,"Cn1cc(CN2C(=O)c3cc(S(=O)(=O)NC4(C)CC4)ccc3N3C2=NCC3COc2ccc(C#N)cc2)cn1 (centres unmarked) [Example 135, 1-((4-cyanophenoxy)methyl)-4-((1-methyl-1H-pyrazol-4-yl)methyl)-N-(1-methylcyclopropyl)-5-oxo-1,2,4,5-tetrahydroimidazo[1,2-a]quinazoline-7-sulfonamide]",100 to 1000 nM
14,"Cn1cc(CN2C(=O)c3cc(S(=O)(=O)NC4(C)CC4)ccc3N3C2=NCC3COc2cccc(C#N)c2)cn1 (centres unmarked) [Example 136, 1-((3-cyanophenoxy)methyl)-4-((1-methyl-1H-pyrazol-4-yl)methyl)-N-(1-methylcyclopropyl)-5-oxo-1,2,4,5-tetrahydroimidazo[1,2-a]quinazoline-7-sulfonamide]",< 100 nM
15,"Cn1cc(CN2C(=O)c3cc(S(=O)(=O)NC4(C)CC4)ccc3N3C2=NCC3COc2ccccc2C#N)cn1 (centres unmarked) [Example 137, 1-((2-cyanophenoxy)methyl)-4-((1-methyl-1H-pyrazol-4-yl)methyl)-N-(1-methylcyclopropyl)-5-oxo-1,2,4,5-tetrahydroimidazo[1,2-a]quinazoline-7-sulfonamide]",100 to 1000 nM
16,"Cn1cc(CN2C(=O)c3cc(S(=O)(=O)NC4(C)CC4)ccc3N3C2=NCC3COc2cccc(Cl)c2)cn1 (centres unmarked) [Example 138, 1-((3-chlorophenoxy)methyl)-4-((1-methyl-1H-pyrazol-4-yl)methyl)-N-(1-methylcyclopropyl)-5-oxo-1,2,4,5-tetrahydroimidazo[1,2-a]quinazoline-7-sulfonamide]",100 to 1000 nM
17,"C[C@@H]1CN=C2N(CC(F)F)C(=O)c3cc(S(=O)(=O)NC4(C)CC4)ccc3N21 [Example 139, (R)-4-(2,2-difluoroethyl)-1-methyl-N-(1-methylcyclopropyl)-5-oxo-1,2,4,5-tetrahydroimidazo[1,2-a]quinazoline-7-sulfonamide]",100 to 1000 nM
18,"Cn1cc(CN2C(=O)c3cc(S(=O)(=O)NC4(C)CC4)ccc3N3C2=NC[C@H]3C#Cc2cnn(C)n2)cn1 [Example 140, (R)-4-((1-methyl-1H-pyrazol-4-yl)methyl)-1-((2-methyl-2H-1,2,3-triazol-4-yl)ethynyl)-N-(1-methylcyclopropyl)-5-oxo-1,2,4,5-tetrahydroimidazo[1,2-a]quinazoline-7-sulfonamide]",< 100 nM
19,"Cn1cc(CN2C(=O)c3cc(S(=O)(=O)NC4(C)CC4)ccc3N3C2=NC[C@H]3COc2ccn(C)n2)cn1 [Example 141, (S)-1-(((1-methyl-1H-pyrazol-3-yl)oxy)methyl)-4-((1-methyl-1H-pyrazol-4-yl)methyl)-N-(1-methylcyclopropyl)-5-oxo-1,2,4,5-tetrahydroimidazo[1,2-a]quinazoline-7-sulfonamide]",100 to 1000 nM
20,"CN1C(=O)c2cc(S(=O)(=O)NC3(C)CC3)ccc2N2C1=NC[C@H]2C#Cc1ccc2nn(C)cc2c1 [Example 142, (R)-4-methyl-1-((2-methyl-2H-indazol-5-yl)ethynyl)-N-(1-methylcyclopropyl)-5-oxo-1,2,4,5-tetrahydroimidazo[1,2-a]quinazoline-7-sulfonamide]",< 100 nM
21,"Cn1cc(CN2C(=O)c3cc(S(=O)(=O)NC4(C)CC4)ccc3N3C2=NCC3COc2ccc(Cl)cc2)cn1 (centres unmarked) [Example 143, 1-((4-chlorophenoxy)methyl)-4-((1-methyl-1H-pyrazol-4-yl)methyl)-N-(1-methylcyclopropyl)-5-oxo-1,2,4,5-tetrahydroimidazo[1,2-a]quinazoline-7-sulfonamide]",100 to 1000 nM
22,"Cn1cc(CN2C(=O)c3cc(S(=O)(=O)NC4(C)CC4)ccc3N3C2=NC[C@H]3c2ccccc2)cn1 [Example 144, (R)-4-((1-methyl-1H-pyrazol-4-yl)methyl)-N-(1-methylcyclopropyl)-5-oxo-1-phenyl-1,2,4,5-tetrahydroimidazo[1,2-a]quinazoline-7-sulfonamide]",< 100 nM
23,"Cn1cc(CN2C(=O)c3cc(S(=O)(=O)NC4(C)CC4)ccc3N3C2=N[C@H]2CCCC[C@H]23)cn1 [Example 145, (7aS,11aR)-6-((1-methyl-1H-pyrazol-4-yl)methyl)-N-(1-methylcyclopropyl)-5-oxo-5,6,7a,8,9,10,11,11a-octahydrobenzo[4,5]imidazo[1,2-a]quinazoline-3-sulfonamide]",< 100 nM
24,"C[C@@H]1CN=C2N(Cc3cnn(C)c3)C(=O)c3cc(S(=O)(=O)NC4(C)CC4)cc(N4CC(C)(C#N)C4)c3N21 [Example 146, (R)-9-(3-cyano-3-methylazetidin-1-yl)-1-methyl-4-((1-methyl-1H-pyrazol-4-yl)methyl)-N-(1-methylcyclopropyl)-5-oxo-1,2,4,5-tetrahydroimidazo[1,2-a]quinazoline-7-sulfonamide]",1000 to 10000 nM
25,"CN1C(=O)c2cc(S(=O)(=O)NC3(C)CC3)ccc2N2C1=NC[C@H]2C#Cc1ccc2cn(C)nc2c1 [Example 147, (R)-4-methyl-1-((2-methyl-2H-indazol-6-yl)ethynyl)-N-(1-methylcyclopropyl)-5-oxo-1,2,4,5-tetrahydroimidazo[1,2-a]quinazoline-7-sulfonamide]",< 100 nM
26,"CN1C(=O)c2cc(S(=O)(=O)NC3(C)CC3)ccc2N2C1=NC[C@H]2C#Cc1ccc2c(cnn2C)c1 [Example 148, (R)-4-methyl-1-((1-methyl-1H-indazol-5-yl)ethynyl)-N-(1-methylcyclopropyl)-5-oxo-1,2,4,5-tetrahydroimidazo[1,2-a]quinazoline-7-sulfonamide]",< 100 nM
